Holding throughout (assay type): cell-based, human
In one series the test system is hAR protein. Briefly: Western blot of hAR protein in Wnt-activated LNCaP cells. The note with it: β-catenin or PCDH-PC transfected or 7 days androgen-free LNCaP. An excerpt:
FIGS. 43A-43C. […] FIG. 43A. […] FIG. 43B.
(§1) FIGS. 44A-44B. Suppression of MDM2 expression or direct Akt activity relieves Wnt-mediated suppression of hAR protein expression. FIG. 44A. […] (middle). Actin control (bottom). FIG. 44B. […] Actin control (bottom).
(§2) Cell lines, plasmids and siRNAs. LNCaP, CWR22rv-1, PC-3 and DU145 cells were obtained from ATCC and were passaged in normal (for LNCaP, RPMI 1640 with 10% fetal calf serum and supplements) or androgen-free maintained as previously described (Yang et al., 2005). A defective adenovirus that expresses Wnt-1 protein (Ad-Wnt-1) and control, Lac Z expressing adenovirus (Ad-lac Z) were previously described (Young et al., 1998). These viruses were applied at 20 particles/cell in low serum (2%) medium for 1 h. Expression plasmids containing mutated (stabilized) human β-catenin (Tetsu and McCormick, 1999), dominant negative TCF-4 (Chen et al., 2001) or PCDH-PC cDNA were transfected into cells as previously described (Example 1; Yang et al., 2005). Small interfering (si) RNAs targeting β-catenin or lamin were purchased from Dharmacon Inc. siRNA targeting human MDM2 was purchased from Qiagen Inc (Valencia, Calif.). siRNAs were transfected into cells. Proteasome inhibitors MG132 and lactacystin were purchased from Sigma Chemical Co. (St Louis, Mo.) and were used at 5 (MG 132) or 10 (lactacystin) […] for 12 h prior to cell harvesting. PI3-kinase inhibitor LY294002 (Sigma Chemical Co.) and Akt Inhibitor IV (compound 5233705, EMD Biosciences Inc., San Diego, Calif.) (Kau et al., 2003) were used at 4 and 50 mM concentrations, respectively, for 12 h prior to harvesting cells.
(§3) Preparation of cell extracts and western blots. Cells were harvested and protein extracts prepared, quantified and used to prepare Western blots as previously described (Example 1; Yang et al., 2005). […] Recombinant Wnt-1 protein (HA-tagged) was detected with anti-HA antibody (Clontech Inc., Mountain View, Calif.). Antibody binding to the Western blot was detected as previously described (Yang et al., 2005). […]

The subject of a further series is MDM2. As to the kind of experiment: Western blot of phosphorylated MDM2 in Wnt-activated LNCaP cells. The note with it: β-catenin transfected or 7 days androgen-free LNCaP.
Description: as §1
(§4) FIG. 45. Proteasome inhibitors block the suppression of MDM2 phosphorylation and suppress degradation of PP2A B subunit protein in Wnt-activated LNCaP cells. […] There was no change in the PP2A catalytic C subunit levels in Wnt-activated or proteasome-inhibitor treated cells (bottom).
as §2, with “PI3-kinase inhibitor LY294002 (Sigma Chemical Co.) and Akt Inhibitor IV (compound 5233705, EMD Biosciences Inc., San Diego, Calif.) (Kau et al., 2003) were used at 4 and 50 mM concentrations, respectively, for 12 h prior to harvesting cells.” left out
as §3
(A western blot detects proteins with antibodies after separation by electrophoresis.)

A further series concerns PCDH-PC mRNA. Briefly: RT-PCR of PCDH-PC mRNA in LNCaP cells. The following applies: 1 mM db-cAMP, 50 ng/ml IL-6 or 5 nM NS-398, 5 days. The text has this: (§5) FIGS. 3A-3D. […] FIG. 3A. […] FIG. 3B. […] FIG. 3C. […] FIG. 3D.
FIG. 5A. […] FIG. 5B. […] FIG. 5C.

For a further series, the system named is NSE and chromogranin-A. Briefly: Western blot of NE biomarkers in LNCaP cells treated with NE transdifferentiation inducers. The following applies: 1 mM db-cAMP, 50 ng/ml IL-6 or 5 nM NS-398, 5 days.
Description: as §5

The next series concerns PCDH-PC. As to the kind of experiment: Western blot of myc-tagged PCDH-PC in LNCaP cells co-transfected with pPCDH-PC-myc and siRNA. The following applies: siRNA 100 nM co-transfected with pPCDH-PC-myc, 48 hrs. The text has this:
FIGS. 4A-4B. siRNAs against PCDH-PC suppress PCDH-PC expression and NE transdifferentiation of LNCaP cells. FIG. 4A. LNCaP cells were transfected with the pPCDH-PC-myc expression vector and were co-transfected with siRNA against human lamin or siRNAs 181, 190 or 208 designed to suppress PCDH-PC expression. A Western blot made against protein extracts from these cells were probed with anti-myc (Top Panel) to identify expression of the 110 kd PCDH myc-tagged protein, anti-β-actin (Middle Panel) or anti-human E-cadherin (Bottom Panel). FIG. 4B. A repeated experiment that includes control LNCaP cells (no transfection) or pCMV-PCDH-myc transfected LNCaP cells co-transfected with siRNAs against lamin or against PCDH-PC (181, 190 or 208). The Western blot was probed for NSE expression (Top Panel) or for β-actin expression (Bottom Panel).
Expression Vectors, Transfection Protocols and Luciferase/β-Glactosidase Assays. PCDH-PC cDNA was inserted into the mammalian expression vectors pcDNA3 (Invitrogen Life Technologies, Inc., Carlsbad, Calif.) or into pCMV-myc (BD Biosciences, Clontech, Inc., Palo Alto, Calif.) so that the PCDH-PC product generated from this vector (pPCDH-PC-myc) has a C-terminal myc tag. An expression vector containing cDNA encoding a mutated (stabilized) form of human β-catenin (Tetsu and McCormick, 1999) was used. A dominant-negative Tcf expression vector used was previously described (Chen et al., 2001). The Tcf-sensitive reporter vector, pTOP and a CMV-promoted β-galactosidase expression vector were obtained from Upstate Biotechnology, Inc. Transfections used for protein or RNA extractions were done in 35 cm^2 dishes with cells plated at 50% density 12-16 hrs prior. […] Luciferase activity in cell extracts was measured using the Luciferase Assay System of Promega, Inc. (Madison, Wis.). β-galactosidase activity was also measured in the same cell extracts using the β-galactosidase Enzyme Assay System of Promega, Inc. All experiments involving luciferase reporter vectors were done in triplicate for each point. […]

The subject of the next series is PP2A B subunit. Briefly: Western blot of PP2A B subunit in Wnt-activated LNCaP cells.
Description: as §4
Preparation of cell extracts and western blots. Cells were harvested and protein extracts prepared, quantified and used to prepare Western blots as previously described (Example 1; Yang et al., 2005). Western blots were probed with mouse monoclonal antibodies against human Akt protein, phospho-MDM2 (ser 166), hAR (Santa Cruz Biotechnology Inc., Santa Cruz, Calif.), actin (Sigma Chemical Co., St Louis, Mo.) or with rabbit polyclonal antibodies against phospho-Akt (ser 473) or human MDM2 (Cell Signaling Technology, Beverly, Mass.). Recombinant Wnt-1 protein (HA-tagged) was detected with anti-HA antibody (Clontech Inc., Mountain View, Calif.). Antibody binding to the Western blot was detected as previously described (Yang et al., 2005). Densitometry of films was carried out using a Kodak Image Station 420.

The results in this text go back to patent publication US20090311716A1, “METHODS TO TREAT OR PREVENT HORMONE-RESISTANT PROSTATE CANCER USING siRNA [sequence] FOR PROTOCADHERIN-PC, OR OTHER INHIBITORS OF PROTOCADHERIN-PC EXPRESSION OR ACTIVITY” (THE TRUSTEES OF COLUMBIA UNIVERSITY IN THE CITY OF NEW YORK, priority 2005, published 2009).

Entries after “also recorded” stand apart in the source; their conditions may differ. Peptide text beside a SMILES is read from it. * marks the point of attachment. Cbz = O=C(OCc1ccccc1)*

For the compound `CC[n+]1c(/C=C/N(C)c2ccccc2)n(-c2ccccc2)c2ccc(-c3nc4ccccc4s3)cc21.[I-]` [compound 5233705], in the series with hAR protein, the “Wnt-mediated suppression of hAR protein expression” value (shortened to “Wnt-mediated suppression”) is listed as “significant elevation; also recorded: relieves”. For the same compound, the “Wnt-mediated upregulation of MDM2 phosphorylation” value (from here on “Wnt-mediated upregulation”) in the series with MDM2 is “able to suppress; also recorded: relieves”.

In the case of interleukin-6 [IL-6], in the series with PCDH-PC mRNA, the “expression of PCDH-PC mRNA” value is listed as “highly upregulated”. For the same compound, the “expression of NSE and chromogranin-A proteins” value with NSE and chromogranin-A is reported as “highly upregulated”.

For `CS(=O)(=O)Nc1ccc([N+](=O)[O-])cc1OC1CCCCC1` [NS-398], the “expression of PCDH-PC mRNA” value with PCDH-PC mRNA is given as “highly upregulated”. Moreover, the “expression of NSE and chromogranin-A proteins” value in the series with NSE and chromogranin-A is given as “highly upregulated”.

For the compound “siRNA #190: 21 bp siRNA targeting PCDH-PC mRNA position 3098-3117, 19 bp core with UU overhangs (SEQ ID NO:6) (AAACATGCAGAATTCTGAATG; listed as DNA, further chemistry not given here)”, the “expression of myc-tagged PCDH-PC polypeptide” value in the series on PCDH-PC is listed as “suppressive effects”.

Turning to `CC(C)C[C@@H](C=O)NC(=O)[C@H](CC(C)C)NC(=O)[C@H](CC(C)C)NC(=O)OCc1ccccc1` [MG132] (Cbz-Leu-Leu-Leu-aldehyde), in the series on hAR protein, the “Wnt-mediated suppression” value is on record as “restored to levels commensurate with elevated hAR mRNA levels”. Further, the “Wnt-mediated upregulation” value with MDM2 was “blocked”. For the same compound, the “loss of PP2A regulatory subunit B” value with PP2A B subunit is recorded as “blocked”.

“siRNA #208: 21 bp siRNA targeting PCDH-PC mRNA position 3345-3364, 19 bp core with UU overhangs (SEQ ID NO:7) (AAGAAACTAAGGCAGATGATG; listed as DNA, further chemistry not given here)”: the “expression of myc-tagged PCDH-PC polypeptide” value with PCDH-PC is “suppressive effects”.

Take `CC(=O)N[C@@H](CSC(=O)[C@]1([C@@H](O)C(C)C)NC(=O)[C@H](C)[C@@H]1O)C(=O)O` [lactacystin]: the “Wnt-mediated suppression” value in the series on hAR protein is recorded as “restored to levels commensurate with elevated hAR mRNA levels”. Besides, the “Wnt-mediated upregulation” value in the series on MDM2 is “blocked”. In addition, in the series with PP2A B subunit, the “loss of PP2A regulatory subunit B” value is reported as “blocked”.
